Values of other authors in patent publication US20200229456A1, “Synergistic Formulation Including At Least One Gibberellin Compound and Salicyclic Acid” (Stoller Enterprises, Inc., priority 2018, published 2020).

How the values were obtained:
Cavendish bananas = conditions: 300 ppm GA3 or 4 mM SA, versus other treatments
tomatoes = conditions: GA3 at 0.1%, CaCl2 at 1.5%, SA at 0.4 mM
Bananas = conditions: SA at either 0.5 mM or 1 mM
banana slices = conditions: GA3 applied exogenously on banana slices

Compound: O=C(O)c1ccccc1O [SA, Salicylic acid]
- delay in ripening (Cavendish bananas): more considerable delay in ripening
- shelf life of tomatoes (tomatoes): extended the shelf life
- fruit firmness (Bananas): firmer fruits
- respiration rates (Bananas): decrease in respiration rates
- sugar content (Bananas): lower sugar content

Compound: [Ca+2].[Cl-].[Cl-] [CaCl2, calcium chloride]
- shelf life of tomatoes (tomatoes): extended the shelf life

Compound: C=C1C[C@]23C[C@@]1(O)CC[C@H]2[C@@]12C=C[C@H](O)[C@@](C)(C(=O)O1)[C@H]2[C@@H]3C(=O)O [GA3, gibberellic acid]
- postponement of accumulation of sucrose (banana slices): 2 days
- respiration rate or ethylene profile (banana slices): does not alter
- delay in ripening (Cavendish bananas): more considerable delay in ripening
- shelf life of tomatoes (tomatoes): extended the shelf life
